Entries after “also recorded” stand apart in the source; their conditions may differ.
Test system: CHO pgsA-745
Test: Priming of glycosaminoglycan synthesis by xylosides, 35S-sulfate incorporation into purified HS/CS
Format: cell-based
Details: 1 uM
Method: To determine whether the xylosides are able to prime the synthesis of glycosaminoglycans in cells in vitro experiments were performed using CHO pgsA-745. The cells were treated with appropriate primers in the presence of 35S—Na2SO4, glycosaminoglycans were purified and analyzed as described below. 1×10^4 cells were plated per well in Ham's/F12 complete growth medium in a 24-well plate. The cells were incubated at 37° C. in a humidified incubator for 24 hours to a confluency of about 50%. The cells were washed with sterile PBS and replaced with 450 μL ham's/F12 containing 10% dialyzed FBS. Solutions containing a specific primer at 100× the final concentration were prepared. 5 μL of appropriate 100× primer were added to various wells to yield a final concentration of 100 μM. 50 μCi of 35S—Na2SO4 was also added to each well as tracer. The 24-well plates were placed back in the 37° C. incubator for 24 hours before the addition of 100 μL 6× pronase solution followed by incubation at 37° C. overnight.
(§1) To determine whether the xylosides are able to prime the synthesis of glycosaminoglycans in cells, in vitro experiments were performed using CHO pgsA-745. The cells were treated with appropriate primers in the presence of 35S—Na2SO4, glycosaminoglycans were purified and analyzed as described below. 1×10^4 cells were plated per well in Ham's/F12 complete growth medium in a 24-well plate. The cells were incubated at 37° C. in a humidified incubator for 24 hours to a confluency of about 50%. The cells were washed with sterile PBS and replaced with 450 uL ham's/F12 containing 10% dialyzed FBS. Serial dilutions of the primers at 100× the final concentration were prepared. 5 uL of appropriate 100× primer were added to various wells to yield a final concentration of 1, 10, 100 and 1000 uM respectively. 50 uCi of 35S—Na2SO4 was also added to each well as tracer. The 24-well plates were placed back in the 37° C. incubator for 24 hours before the addition of 100 uL 6× pronase solution followed by incubation at 37° C. overnight.
The entire contents of the wells were transferred to a microcentrifuge tube and subjected to centrifugation at 16,000×g for 5 minutes. The supernatant was transferred to a fresh tube and half-a-volume of 0.016% Triton X-100 was added. The diluted supernant was loaded on 0.2 mL DEAE-sepharose column pre-equilibrated with 2 mL of 20 mM NaOAc buffer pH 6.0 containing 0.1 M NaCl and 0.01% Triton X-100 and the column was washed with 4 mL of buffer described above. The bound HS/CS was eluted using 1.2 mL elution buffer, 20 mM NaOAc, pH 6.0, containing 1 M NaCl. The extent of priming by the various xyloside primers was evaluated by quantifying the 35S-radioactivity incorporated in to the purified HS/CS elute by liquid scintillation. 50 uL of the various elutes were added to 5 mL of scintillation cocktail and the vials were counted in a scintillation counter in triplicate. The amount of radioactivity corresponds to the total glycosaminoglycan synthesis due to the primer.
as §1, with “a) To” for “To”, “cells” for “cells,”, “^35S—Na2SO4,” for “35S—Na2SO4,”, “37 C” for “37° C.”, “^35S—Na2SO4” for “35S—Na2SO4”, “The 24-well plates were placed back in the 37° C. incubator for 24 hours before the addition of 100 uL 6× pronase solution followed by incubation at 37° C. overnight.” left out

Row | Compound | priming ability relative to the next highest primer at 1 uM
1 | O=S(=O)(c1ccccc1)[C@@H]1OC[C@@H](O)[C@H](O)[C@H]1O [sulfone-phenyl xyloside] | four times that of the next highest priming activity seen at this concentration

Same assay, conditions: 1 uM primer

Row | Compound | GAG priming activity at 1 uM (in words)
2 | O=S(=O)(c1ccccc1)[C@@H]1OC[C@@H](O)[C@H](O)[C@H]1O [sulfone-phenyl xyloside] | better activity at concentration as low as 1 uM; also recorded: highest activity than any of the primers

Same assay, conditions: 10 uM primer

Row | Compound | GAG priming activity at 10 uM (in words)
3 | OC1COC(n2cc(COc3ccc4c(c3)CCCC4)nn2)C(O)C1O (stereo not shown) [tetrahydronaphthyl] | significantly higher priming activity than other xylosides
4 | O[C@@H]1[C@@H](O)[C@H](Sc2ccccc2)OC[C@H]1O [thiophenyl, beta-D-thiophenyl xyloside, reference compound] | significantly higher priming activity than other xylosides
5 | O=S(=O)(c1ccccc1)[C@@H]1OC[C@@H](O)[C@H](O)[C@H]1O [sulfone-phenyl xyloside] | significantly higher priming activity than other xylosides

Same assay, conditions: 100 uM

Row | Compound | priming activity relative to the thio-phenyl and thio-pyridyl primers
6 | O=S(=O)(c1ccccc1)[C@@H]1OC[C@@H](O)[C@H](O)[C@H]1O [sulfone-phenyl xyloside] | about 60%

Same assay, conditions: CHO pgsA-745 cells; concentration not given

Row | Compound | GAG priming ability (in words, relative to the comparator named)
7 | OC1COC(n2cc(COc3cccnc3)nn2)C(O)C1O (stereo not shown) [compound 6] | prime GAGs albeit in lesser quantities than their respective β-anomers
8 | COc1ccccc1-c1cn(C2OCC(O)C(O)C2O)nn1 (stereo not shown) [compound 32] | primed nearly two times the amount of GAG chains compared to the unsubstituted xyloside 29
9 | OC1COC(n2cc(COCc3ccc(F)cc3)nn2)C(O)C1O (stereo not shown) [compound 24] | down regulates the priming ability
10 | OCc1cccc(COCc2cn(C3OCC(O)C(O)C3O)nn2)c1 (stereo not shown) [compound 25] | down regulates the priming ability
11 | OC1COC(n2cc(COc3ccc(-c4ccc(Br)cc4)cc3)nn2)C(O)C1O (stereo not shown) [compound 17] | decreased
12 | OC1COC(n2cc(COCc3ccccc3)nn2)C(O)C1O (stereo not shown) [compound 23] | prime GAGs albeit in lesser quantities than their respective β-anomers
13 | OC1COC(n2cc(COc3ccc4cc(Br)ccc4c3)nn2)C(O)C1O (stereo not shown) [compound 19] | completely abolished the priming activity
14 | OC1COC(n2ccnn2)C(O)C1O (stereo not shown) [compound 2] | prime GAGs albeit in lesser quantities than their respective β-anomers
15 | COc1ccc(-c2cn(C3OCC(O)C(O)C3O)nn2)cc1 (stereo not shown) [compound 33] | primed one-half the amount of GAG chains compared to the unsubstituted xyloside 29
16 | COc1ccc(OCc2cn(C3OCC(O)C(O)C3O)nn2)cc1 (stereo not shown) [compound 10] | prime GAGs albeit in lesser quantities than their respective β-anomers
17 | OC1COC(n2cc(COc3ccccc3)nn2)C(O)C1O (stereo not shown) [compound 8] | prime GAGs albeit in lesser quantities than their respective β-anomers
18 | COc1ccc(OCc2cn(C3OCC(O)C(O)C3O)nn2)cc1 (stereo not shown) [compound 9] | marginal effect on the priming ability
19 | OC1COC(n2cc(COc3cc4ccccc4c4ccccc34)nn2)C(O)C1O (stereo not shown) [compound 21] | primed less GAG chains than the less hydrophobic xyloside (Table 1A: compound 18) did
20 | COc1cc(OC)cc(-c2cn(C3OCC(O)C(O)C3O)nn2)c1 (stereo not shown) [compound 34] | showed decrease priming compared to the unsubstituted xyloside 29
21 | OC1COC(n2cc(-c3ccccc3)nn2)C(O)C1O (stereo not shown) [compound 29] | decreased the priming ability by two fold
22 | OC1COC(n2cc(COc3ccc4c(c3)CCCC4)nn2)C(O)C1O (stereo not shown) [compound 20] | did not significantly influence priming activity
23 | OC1COC(n2ccnn2)C(O)C1O (stereo not shown) [compound 1] | primed slightly better than the well known β-O-naphthyl xyloside

Same assay, conditions: fold less efficient than compound 7

Row | Compound | priming efficiency compared to phenyl substituted xyloside compound 7
24 | OC1COC(n2cc(COc3cccnc3)nn2)C(O)C1O (stereo not shown) [compound 5] | 10 times

Same assay, conditions: relative to unsubstituted phenyl xyloside

Row | Compound | loss of priming activity by para nitro substitution
25 | O=[N+]([O-])c1ccc(OCc2cn(C3OCC(O)C(O)C3O)nn2)cc1 (stereo not shown) [compound 15] | approximately 30%

Test system: CHO pgsA-745
Test: Composition of HS and CS in the primed glycosaminoglycans (Chondroitinase AC digestion)
Format: cell-based
Details: share of HS in total GAG
Method: (§2) To determine the composition of the HS and CS in the glycosaminoglycans synthesized, a small aliquot of the elute (300 uL) was diluted 10-fold and digested using Chondroitinase AC. The sample was subjected to precipitation to remove the disaccharide in the presence of cold chondroitin sulfate A and scintillation counted. This gives the amount of HS primed on the xylosides and the difference in the radioactivity corresponds to the amount of chondroitin sulfate in the purified glycoaminoglycan elute.
as §2, with “b) To” for “To”

Row | composition of HS in primed glycosaminoglycans (in words) | composition of HS in primed glycosaminoglycans | Compound
26 | Half | – | OC1COC(n2cc(COc3ccc(F)cc3)nn2)C(O)C1O (stereo not shown) [fluoro-substituted derivative]
27 | – | −72% | C-(2-naphthol)-xyloside
28 | Half | – | OC1COC(n2cc(COc3ccccc3)nn2)C(O)C1O (stereo not shown) [triazole-O-phenyl]
